# From patent US3984393A, “Aminoglycoside antibiotics” (The Upjohn Company, priority 1975, dated 1976)
# How the values were obtained:
# B. subtilis UC 564 = assay: agar diffusion (standard agar disc plate) assay, B. subtilis UC 564; format: cell-based, Bacillus subtilis; set-up: unit: mm
# Description: (§1) The novel intermediates, disclosed herein, are useful to make novel aminoglycoside antibiotics. These novel aminoglycoside antibiotics are antibacterially active, and, thus, they can be used in various environments to eradicate or control sensitive bacteria. Following are in vitro antibacterial test results for representative compounds of the subject invention. The results were obtained with a standard disc plate assay using 12.5 mm paper discs.
# (§2) Compound (14β) was also tested against a series of bacteria on a standard agar disc plate assay, as described above.
# P. morgani UC 3186 = assay: standard microplate test in BHI Agar (MIC), P. morgani UC 3186; format: cell-based; conditions: 20 h; P. morgani UC 3186; retest table, group (7β), (14β), neamine control; read-out: Minimum Inhibitory Concentration
# Description: (§3) Compounds were also tested in a standard microplate test in Brain Heart Infusion (BHI) Agar, at a concentration of 1 mg/ml. Incubation is at 37° and end points are read at 20 hours. Brain Heart Infusion Agar (supplied by Difco Laboratories, Detroit, Michigan, U.S.A.) has the following composition:
# (§4) Compounds (7β), (7α) and (9) were tested again along with compounds (11) and (14β) against a neamine control using the same conditions as given above.
# S. aureus UC 76 [1] = assay: agar diffusion (standard agar disc plate) assay, S. aureus UC 76; format: cell-based, Staphylococcus aureus; set-up: unit not given here
# Description: as §1, §2
# S. aureus UC 76 [2] = assay: standard microplate test in BHI Agar (MIC), S. aureus UC 76; format: cell-based, Staphylococcus aureus
# Description: as §3, §4
# D. pneumoniae UC 41 = assay: standard microplate test in BHI Agar (MIC), D. pneumoniae UC 41; format: cell-based; conditions: Streptococcus pneumoniae, UC41, 20 h, D. pneumoniae UC 41; retest table, group (7β), (14β), neamine control; read-out: Minimum Inhibitory Concentration
# Description: as §3, §4
# E. coli UC 51 = assay: agar diffusion (standard agar disc plate) assay, E. coli UC 51; format: cell-based, Escherichia coli; set-up: unit not given here
# Description: as §1, §2
# St. faecalis UC 694 = assay: standard microplate test in BHI Agar (MIC), St. faecalis UC 694; format: cell-based; conditions: Enterococcus faecalis, UC694, 20 h, S. faecalis UC 694; retest table, group (7β), (14β), neamine control; read-out: Minimum Inhibitory Concentration
# Description: as §3, §4
# B. cereus UC 3145 = assay: agar diffusion (standard agar disc plate) assay, B. cereus UC 3145; format: cell-based, Bacillus cereus; set-up: unit: mm
# Description: as §1, §2
# K. pneumoniae UC 58 = assay: standard microplate test in BHI Agar (MIC), K. pneumoniae UC 58; format: cell-based; conditions: Klebsiella pneumoniae, UC58, 20 h; K. pneumoniae UC 58; retest table, group (7β), (14β), neamine control; read-out: Minimum Inhibitory Concentration
# Description: as §3, §4
# S. flexneri UC 143 = assay: standard microplate test in BHI Agar (MIC), S. flexneri UC 143; format: cell-based; conditions: Shigella flexneri, UC143, 20 h, retest table, group (7β), (14β), neamine control, read-out: Minimum Inhibitory Concentration
# Description: as §3, §4
# P. vulgaris UC 93 [3] = assay: standard microplate test in BHI Agar (MIC), P. vulgaris UC 93; format: cell-based; conditions: Proteus vulgaris, UC93, 20 h, P. vulgaris UC 93; retest table, group (7β), (14β), neamine control; read-out: Minimum Inhibitory Concentration
# Description: as §3, §4
# B. subtilis = assay: standard disc plate assay, 12.5 mm paper discs (zone of inhibition), B. subtilis; format: cell-based, Bacillus subtilis; conditions: conclusion in words from the above results
# Source text: as §1
# P. vulgaris UC 93 [4] = assay: agar diffusion (standard agar disc plate) assay, p. vulgaris UC 93; format: cell-based; set-up: unit: mm
# Description: as §1, §2
# K. pneumoniae UC 57 = assay: agar diffusion (standard agar disc plate) assay, K. pneumoniae UC 57; format: cell-based; set-up: unit: mm
# Description: as §1, §2
# S. hemolyticus UC 152 = assay: standard microplate test in BHI Agar (MIC), S. hemolyticus UC 152; format: cell-based, Streptococcus hemolyticus; conditions: Streptococcus pyogenes, UC152, 20 h; S. hemolyticus UC 152; retest table, group (7β), (14β), neamine control; read-out: Minimum Inhibitory Concentration
# Description: as §3, §4
# S. marcescens UC 131 = assay: standard microplate test in BHI Agar (MIC), S. marcescens UC 131; format: cell-based; conditions: Serratia marcescens, UC131, 20 h; S. marcescens UC 131; retest table, group (7β), (14β), neamine control; read-out: Minimum Inhibitory Concentration
# Description: as §3, §4
# S. typhi TG-3 = assay: standard microplate test in BHI Agar (MIC), S. typhi TG-3; format: cell-based; conditions: Salmonella enterica, 20 h, read-out: Minimum Inhibitory Concentration
# Description: as §3, §4
# S. lutea UC 130 = assay: agar diffusion (standard agar disc plate) assay, S. lutea UC 130; format: cell-based; set-up: unit: mm
# Description: as §1, §2
# E. coli UC 45 = assay: standard microplate test in BHI Agar (MIC), E. coli UC 45; format: cell-based; conditions: Escherichia coli, UC45, 20 h, E. coli UC 45; retest table, group (7β), (14β), neamine control; read-out: Minimum Inhibitory Concentration
# Description: as §3, §4
# P. rettgeri UC 339 = assay: standard microplate test in BHI Agar (MIC), P. rettgeri UC 339; format: cell-based; conditions: Providencia rettgeri, UC339, 20 h; P. rettgeri UC 339; retest table, group (7β), (14β), neamine control; read-out: Minimum Inhibitory Concentration
# Description: as §3, §4
# B. cereus = assay: standard disc plate assay, 12.5 mm paper discs (zone of inhibition), B. cereus; format: cell-based, Bacillus cereus; conditions: conclusion in words from the above results
# Source text: as §1
# Ps. aeruginosa UC 95 [5] = assay: standard microplate test in BHI Agar (MIC), Ps. aeruginosa UC 95; format: cell-based; conditions: Pseudomonas aeruginosa, UC95, 20 h, Ps. aeruginosa UC 95; retest table, group (7β), (14β), neamine control; read-out: Minimum Inhibitory Concentration
# Description: as §3, §4
# P. mirabilis A-63 = assay: standard microplate test in BHI Agar (MIC), P. mirabilis A-63; format: cell-based; conditions: Proteus mirabilis, A63, 20 h; P. mirabilis A-63; retest table, group (7β), (14β), neamine control; read-out: Minimum Inhibitory Concentration
# Description: as §3, §4
# Ps. aeruginosa UC 95 [6] = assay: agar diffusion (standard agar disc plate) assay, Ps. aeruginosa UC 95; format: cell-based
# Description: as §1, §2
structure (smiles),measurement,setting,value
"NC[C@H]1O[C@H](O[C@H]2[C@H](O)[C@@H](O)[C@H](N)C[C@@H]2N)[C@H](N)[C@@H](O[C@@H]2O[C@H](CO)[C@@H](O)[C@H]2O)[C@@H]1O [Compound (14β), 3'-O-(β-D-Ribofuranosyl)neamine]",Agar Diffusion Assay,B. subtilis UC 564; Full Strength,37
same,Agar Diffusion Assay,B. subtilis UC 564; dilution 1 : 2,35.5
same,Agar Diffusion Assay,B. subtilis UC 564; dilution 1 : 4,33
same,Agar Diffusion Assay,B. subtilis UC 564; dilution 1 : 8,30.5
same,MIC,P. morgani UC 3186,1000 µg/mL
same,Agar Diffusion Assay,S. aureus UC 76 [1]; Full Strength,25
same,Agar Diffusion Assay,S. aureus UC 76 [1]; dilution 1 : 2,23
same,Agar Diffusion Assay,S. aureus UC 76 [1]; dilution 1 : 4,21
same,Agar Diffusion Assay,S. aureus UC 76 [1]; dilution 1 : 8,17.5
same,MIC,"S. aureus UC 76 [2]; Staphylococcus aureus, UC76, 20 h, S. aureus UC 76, retest table, group (7β), (14β), neamine control, read-out: Minimum Inhibitory Concentration",1000 µg/mL
same,active against Staphylococcus aureus,S. aureus UC 76 [2]; conclusion in words from the above results,active
same,MIC,D. pneumoniae UC 41,1000 µg/mL
same,Agar Diffusion Assay,E. coli UC 51; Full Strength,27
same,Agar Diffusion Assay,E. coli UC 51; dilution 1 : 2,24.5
same,Agar Diffusion Assay,E. coli UC 51; dilution 1 : 4,22
same,Agar Diffusion Assay,E. coli UC 51; dilution 1 : 8,18
same,MIC,St. faecalis UC 694,1000 µg/mL
same,Agar Diffusion Assay,B. cereus UC 3145; Full Strength,25.5
same,Agar Diffusion Assay,B. cereus UC 3145; dilution 1 : 2,24
same,Agar Diffusion Assay,B. cereus UC 3145; dilution 1 : 4,21
same,Agar Diffusion Assay,B. cereus UC 3145; dilution 1 : 8,18
same,MIC,K. pneumoniae UC 58,500 µg/mL
same,MIC,S. flexneri UC 143,1000 µg/mL
same,MIC,P. vulgaris UC 93 [3],1000 µg/mL
same,active against Bacillus subtilis,B. subtilis,active
same,Agar Diffusion Assay,P. vulgaris UC 93 [4]; Full Strength,26
same,Agar Diffusion Assay,P. vulgaris UC 93 [4]; dilution 1 : 2,22
same,Agar Diffusion Assay,P. vulgaris UC 93 [4]; dilution 1 : 4,19.5
same,Agar Diffusion Assay,P. vulgaris UC 93 [4]; dilution 1 : 8,16
same,Agar Diffusion Assay,K. pneumoniae UC 57; Full strength,31
same,Agar Diffusion Assay,K. pneumoniae UC 57; dilution 1 : 2,29
same,Agar Diffusion Assay,K. pneumoniae UC 57; dilution 1 : 4,27
same,Agar Diffusion Assay,K. pneumoniae UC 57; dilution 1 : 8,23
same,MIC,S. hemolyticus UC 152,1000 µg/mL
same,MIC,S. marcescens UC 131,1000 µg/mL
same,MIC,S. typhi TG-3,1000 µg/mL
same,Agar Diffusion Assay,S. lutea UC 130; Full strength,25
same,Agar Diffusion Assay,S. lutea UC 130; dilution 1 : 2,22.5
same,Agar Diffusion Assay,S. lutea UC 130; dilution 1 : 4,19
same,Agar Diffusion Assay,S. lutea UC 130; dilution 1 : 8,15
same,MIC,E. coli UC 45,1000 µg/mL
same,MIC,P. rettgeri UC 339,1000 µg/mL
same,active against Bacillus cereus,B. cereus,active
same,MIC,Ps. aeruginosa UC 95 [5],1000 µg/mL
same,MIC,P. mirabilis A-63,1000 µg/mL
same,Agar Diffusion Assay,Ps. aeruginosa UC 95 [6]; Full Strength,20
same,Agar Diffusion Assay,Ps. aeruginosa UC 95 [6]; dilution 1 : 2,17
same,Agar Diffusion Assay,Ps. aeruginosa UC 95 [6]; dilution 1 : 4,14
